≈ marks a conversion by molar mass, not a printed value.
Key:
[1] = test system: Mycobacterium tuberculosis (strain H37RV); assay: In-vitro method for testing compounds against M. tuberculosis; assay type: cell-based; details: 90% inhibitory concentration for bacterial growth, 7 days, 37° C., Resazurin fluorescence; for IC90: Mycobacterium tuberculosis, H37RV, 168 h, read-out: IC90 MTB 1 H37RV
[2] = test system: Staphylococcus aureus (ATCC29213); assay: Microtitre plate IC90 determination against non-mycobacterial strains: S. aureus; assay type: cell-based; details: 90% inhibitory concentration for bacterial growth, 37° C., resazurin fluorescence; for IC90 STA 1 B29213: 24 hours
Procedure: (§1) The bacteria used in this study were grown overnight in flasks containing 100 ml Mueller-Hinton Broth (Becton Dickinson-cat. no. 275730) in sterile de-ionized water, with shaking, at 37° C. Stocks (0.5 ml/tube) were stored at -70° C. until use. Bacteria titrations were performed in microtiter plates to detect the TCID50, in which the TCID50 represents the dilution that gives rise to bacterial growth in 50% of inoculated cultures. In general, an inoculum level of approximately 100 TCID50 was used for susceptibility testing. […] Therefore resazurin (0.6 mg/ml) was added in a volume of 20 μl to all wells 3 hours after inoculation, and the plates were re-incubated overnight. A change in colour from blue to pink indicated the growth of bacteria.

M. smegmatis ATCC607 = assay: In-vitro anti-bacterial activity against strain M. smegmatis ATCC607; details: for IC90 MSM 1 ATCC607: 90% inhibitory concentration for bacterial growth, 48 hours, 37° C., Alamar Blue fluorescence
Procedure: Flat-bottom, sterile 96-well plastic microtiter plates were filled with 180 μl of sterile deionized water, supplemented with 0.25% BSA. Subsequently, stock solutions (7.8× final test concentration) of compounds were added in 45 μl volumes to a series of duplicate wells in column 2 so as to allow evaluation of their effects on bacterial growth. Serial five-fold dilutions (45 μl in 180 μl) were made directly in the microtiter plates from column 2 to 11 using a customised robot system (Zymark Corp., Hopkinton, Mass.). Pipette tips were changed after every 3 dilutions to minimize pipetting errors with high hydrophobic compounds. Untreated control samples with (column 1) and without (column 12) inoculum were included in each microtiter plate. Approximately 250 CFU per well of bacteria inoculum, in a volume of 100 μl in 2.8× Mueller-Hinton broth medium, was added to the rows A to H, except column 12. The same volume of broth medium without inoculum was added to column 12 in row A to H. The cultures were incubated at 37° C. for 48 hours in a humidified 5% CO2 atmosphere (incubator with open air valve and continuous ventilation). At the end of incubation, two days after inoculation, the bacterial growth was quantitated fluorometrically. Therefore Alamar Blue (10×) was added to all wells in a volume of 20 μl and plates were incubated for another 2 hours at 50° C.
The fluorescence was read in a computer-controlled fluorometer (Cytofluor, Biosearch) at an excitation wavelength of 530 nm and an emission wavelength of 590 nm (gain 30). The percentage growth inhibition achieved by the compounds was calculated according to standard methods and expressed as IC90 (μg/ml) which defines the 90% inhibitory concentration for bacterial growth.

[3] = test system: Streptococcus pneumoniae (ATCC6305); assay: Microtitre plate IC90 determination against non-mycobacterial strains: S. pneumoniae; assay type: cell-based; details: 90% inhibitory concentration for bacterial growth, 37° C., resazurin fluorescence; for IC90 SPN 1 6305: 24 hours
Procedure: as §1

Row | SMILES | IC90 MTB 1 H37RV [1] | IC90 STA 1 B29213 [2] | IC90 MSM 1 ATCC607 (M. smegmatis ATCC607) | IC90 SPN 1 6305 [3] | IC90 [1] | IC90 ([2]; Staphylococcus aureus, ATCC29213, 24 h, read-out: IC90 STA 1 B29213) | IC90 (M. smegmatis ATCC607; Mycolicibacterium smegmatis, ATCC607, 48 h, read-out: IC90 MSM 1 ATCC607, 90% inhibitory concentration for bacterial growth, 37° C., Alamar Blue fluorescence) | IC90 ([3]; Streptococcus pneumoniae, ATCC6305, 24 h, read-out: IC90 SPN 1 6305)
1 | COc1nc2ccc(Br)cc2cc1C(c1ccccc1)C(O)(CCCCN(C)C(=N)N)c1ccccc1 (single isomer, unassigned) [Compound 2] | 2.5 µg/mL (≈ 4.45 µM) | 1.8 µg/mL (≈ 3.21 µM) | 1.8 µg/mL (≈ 3.21 µM) | 2.2 µg/mL (≈ 3.92 µM) |  |  |  | 
2 | COc1nc2ccc(Br)cc2cc1C(c1ccccc1)C(O)(CCCCN(C)C(=N)N)c1ccccc1 (single isomer, unassigned) [Compound 1] |  |  |  |  | 4 µg/mL (≈ 7.12 µM) | 2 µg/mL (≈ 3.56 µM) | 1.8 µg/mL (≈ 3.21 µM) | 2.2 µg/mL (≈ 3.92 µM)
3 | COc1nc2ccc(Br)cc2cc1C(c1ccccc1)C(O)(CCCCN1CC2CC1CN2Cc1ccccc1)c1ccc2ccccc2c1 (stereo not drawn) [Compound 23] |  | 2.3 µg/mL (≈ 3.16 µM) | 0.5 µg/mL (≈ 0.688 µM) | 0.2 µg/mL (≈ 0.275 µM) | 57.7 µg/mL (≈ 79.4 µM) |  |  | 

— patent US20100063026A1, “ANTIBACTERIAL QUINOLINE DERIVATIVES” (priority 2007, published 2010)
